Values of other authors as cited in patent US9376461B2, “Non-enzymatic synthesis of O-acetyl-ADP-ribose and analogues thereof” (GlaxoSmithKline LLC, priority 2011, dated 2016).

Test system: starfish oocyte maturation
Settings: infusion (microinjection) of OAADPR, presumably as the mixture of 2′ and 3′ isomers

2′- and 3′-O-Acetyl-ADP-ribose [OAADPR]
effect on starfish oocyte maturation: delayed or halted
